Measurements reported in article PMC548150, “Reversal of a full-length mutant huntingtin neuronal cell phenotype by chemical inhibitors of polyglutamine-mediated aggregation” (BMC Neuroscience, 2005).
“And” between values parts separate entries of the source, which are not always exact repeats. Equal values may be shown once. “Also recorded” adds a separate entry of the source. Read-outs that look alike come from different tables or passages of the source.

Legend:
[1] = test system: HEK 293T cells expressing androgen receptor with 112 glutamines; conditions: cited from earlier work
ST111/111 striatal cells = type: cell-based; conditions: 30 min at 33°C
Description: (§1) After the treatment the drugs were removed and the cells washed twice in PBS. The cells were then fixed by incubation in 4% formaldehyde for 15 min, permeabilized by 0.1% Triton X-100 for 5 min and incubated for 30 min with blocking solution (1% bovine albumin in PBS). Coverslips were then incubated in primary antibody (AP229 1:500 dilution) for 2 h at room temperature and washed three times in PBS before a further 1 h in blocking solution containing the secondary antibody (goat anti-rabbit Cy3, Jackson ImmunoResearch, West Grove, PA. USA). After three washes in PBS coverslips were mounted onto glass slides with Vectashield (Burlingame, CA. USA) and the images were analyzed with a laser confocal microscope (Bio-Rad, Hercules, CA. USA) using 20 × objective. Cell death was quantified by scoring the percentage of cells with apoptotic nuclear morphology, i.e. condensed or fragmented nuclei, under the confocal microscope. In each case five to ten randomly selected fields were counted, comprising at least 200 cells, and each experiment was repeated 3 times.

[2] = test system: PC12 cells expressing huntingtin exon 1 encoding 103 glutamines; parameters: method as in PMID 15262266; conditions: cited from earlier work
[3] = test system: ST111/111 striatal cells (Hdh^Q111/Q111, full-length mutant huntingtin); assay: striatal cell line assay: huntingtin localization phenotype (AP229 immunostaining, confocal); type: cell-based, mouse; conditions: for Percentage of ST111/111 cells showing cytoplasmic/nuclear huntingtin localization comparable to wild-type ST7/7 cells: 30 min at 33°C, mean ± SD of 5–10 fields
Excerpt: To test the hypothesis that compounds, which inhibit the aggregation-promoting property of amino-terminal mutant huntingtin will also rescue effects of full-length mutant huntingtin, we tested the top six inhibitors in a striatal cell-based assay. Mutant Hdh^Q111/Q111 and wild-type Hdh^Q7/Q7 striatal cell lines, […], which have been prepared by transformation with a tsSV40 vector, can be propagated in culture and used for cytological and biochemical comparisons. These cells express full-length mutant or wild-type huntingtin, respectively, with no evidence of truncated amino-terminal fragments, no formation of polyglutamine aggregates and no cell death-producing toxicity. However, like the striatal neurons of Hdh^Q111/Q111 knock-in mice, the ST111/111 cells show nuclear staining of huntingtin when tested with an amino-terminal huntingtin antibody that is sensitive to the conformation of the full-length protein (Figure 5A). By contrast, ST7/7 cells expressing wild type huntingtin show both nuclear and cytoplasmic immunostaining with the same huntingtin antibody (Figure 5A).
Conditionally immortalized wild-type Hdh^Q7/Q7 striatal neuronal progenitor cells (ST7/7) expressing endogenous normal huntingtin, and homozygous Hdh^Q111/Q111 striatal neuronal progenitor cells (ST111/111), expressing endogenous mutant huntingtin with 111-glutamines, have been described previously. The striatal cell lines were grown at 33°C in Dulbecco's modified Eagle's medium (DMEM) supplemented with 10 % fetal bovine serum (FBS), 1% nonessential aminoacids, 2 mM L-glutamine and 400 μg/ml G418 (Geneticin (GIBCO-BRL, Life Technologies, Gaithersburg, MD).
as §1, with “In the immunofluorescence and confocal analysis experiment, wild-type ST7/7 and homozygous mutant ST111/111 cells, grown to confluence on glass coverslips, were treated with 6 different drugs at four different concentrations (0.5, 5, 10 or 50 μM) for 30 min at 33°C. After the” for “After the”

[4] = target: T1, Q58-htn 1–171 amino terminal fragment (GST-Q58-Htn cleaved by thrombin) (Homo sapiens, UniProt P42858, INS38QQQQQQQQQQQQQQQQQQQQQQQQQQQQQQQQQQQQQ); assay: in vitro aggregation of amino-terminal mutant huntingtin fragment (filter retardation dot blot); type: biochemical
T1 construct: the amino terminal fragment 1–171 of mutant huntingtin; GST (N, cleaved yes); made in house; host or cells: E. coli BL21 (pGEX-2TK vector)
T1 sequence (P42858 with tags, fused parts or gaps with the stated changes limits assumed): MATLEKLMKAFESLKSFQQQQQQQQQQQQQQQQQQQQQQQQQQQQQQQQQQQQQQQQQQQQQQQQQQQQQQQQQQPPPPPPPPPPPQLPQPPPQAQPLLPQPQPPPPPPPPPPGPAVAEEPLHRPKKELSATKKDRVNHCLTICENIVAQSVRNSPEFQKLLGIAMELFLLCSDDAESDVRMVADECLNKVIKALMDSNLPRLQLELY
Description: In our primary screen (Figure 1A), GST-Q58-Htn (20 μg/ml) was mixed with thrombin (0.5 unit/μg GST-Q58-Htn) and immediately dispensed into a 96-well PCR plate containing compounds diluted to a final concentration of 100 μM. Incubation was continued for 24 hours at room temperature to allow aggregate formation. The aggregation was stopped by 2% SDS/10 mM 2-mercaptoethanol followed by boiling for 5 minutes. The mixture was filtered through a cellulose acetate membrane by using a 96-well ELIFA dot blot apparatus. The aggregates retained on the membrane were detected and quantified by immunoblotting and subsequent image analysis. Congo Red, a known huntingtin aggregation inhibitor, was used as the positive control.
A recombinant pGEX-2TK expression vector with cDNA fragment encoding amino terminal 171 amino acids of human huntingtin with a polyglutamine tract of 58 was used to prepare the GST-Q58-htn fusion protein. The GST-Q58-htn was overexpressed in BL21 cells and purified by affinity chromatography over glutathione-sepharose 4B beads (Amersham Pharmacia Biotech). The purified proteins were stored at concentration of 2.0 mg/ml at -80°C.
For primary screening of the chemical library, 1 μl of 4.0 mM small compound stock, diluted from the original plates, was placed in wells of 96-well plates. The fusion protein, GST-Q58-Htn was mixed with thrombin (0.5 unit/1 μg protein) at a concentration of 20 μg/ml in a buffer of 50 mM Tris-HCl, pH 8.0, 100 mM NaCl, 2.5 mM CaCl2, 1.0 mM EDTA. The mixture was immediately distributed into the 96-well plates containing diluted compounds at 40 μl/well and mixed well. The final concentration of the small compounds was 100 μM. After 24 hours incubation at room temperature, the reaction was stopped by adding 10 μl of 10% SDS/50 mM 2-mercaptoethanol to each well followed by boiling in a PCR machine for 5 minutes. The mixture from each well was filtered through a cellulose acetate membrane ((0.2 μm, GE Osmonics labstore, Minnetonka MN) by using a 96-well ELIFA (Pierce Biotech). The aggregates retained on the membrane were detected by a specific anti-huntingtin antibody, HP1 (diluted 1:1000), followed by incubation with peroxidase conjugated anti-rabbit antibody (diluted 1:10,000, Sigma). Signals from SDS insoluble aggregates were scanned and quantified by using ImageMaster Totalab image analysis software (Amersham Pharmacia Biotech). In the secondary screening, all steps were the same except the final concentration of compound in each well was reduced to 10 μM and the GST-Q58-Htn/thrombin mixture was preincubated for 45-minutes at room temperature and clarified by centrifugation at 28,000 × g for 30 minutes before being added to the test wells. For IC50 determinations, the in vitro aggregation assay and signal quantification were performed as in the second screening but varying the final concentration of input drug. The data for each inhibitor were obtained from at least two independent experiments in which every sample was analyzed in triplicate with Prism 3.0 software (Graphpad Software, Inc., San Diego, CA).

SMILES: CC1=C(O)C(=O)C=C2C1=CC=C1[C@@]2(C)CC[C@@]2(C)[C@@H]3C[C@](C)(C(=O)O)CC[C@]3(C)CC[C@]12C [Celastrol]
- effect on caspase 3 activation [1]: blocked caspase 3 activation
- toxicity in the HEK 293T assay [1]: showed toxicity
- percentage of dead cells (ST111/111 striatal cells; 5 μM): 1%
- percentage of dead cells (ST111/111 striatal cells; 10 μM): 4%
- protection against polyglutamine toxicity [2]: partially protective
- Percentage of ST111/111 cells showing cytoplasmic/nuclear huntingtin localization comparable to wild-type ST7/7 cells ([3]; 0.5 μM): 8.7 ± 8.7%
- Percentage of ST111/111 cells showing cytoplasmic/nuclear huntingtin localization comparable to wild-type ST7/7 cells ([3]; 5 μM): 69.2 ± 3.8%
- Percentage of ST111/111 cells showing cytoplasmic/nuclear huntingtin localization comparable to wild-type ST7/7 cells ([3]; 10 μM): 78.1 ± 3.5%
- reversal of the mutant huntingtin localization phenotype (in words) ([3]; 0.5–50 μM tested): reversed the mutant phenotype in a dose-dependent manner; also recorded: effective
- IC50 [4]: < 6 µM and < 15 µM and 3.55 µM
- residual aggregate formed ([4]; at the maximum concentration of the dose response (0.01 μM to 500 μM)): approximately 20%
